Data: paper PMC12811501, “A plant-derived antimicrobial peptide with multiple mechanisms of action exhibiting antibacterial and antibiofilm activities comparable to or superior to polymyxin B” (Current Research in Microbial Sciences, 2025)
Converted amounts (≈) assume the structure as drawn. Residues, ends and D or L forms follow the SMILES beside them.

How the values were obtained:
[1] = system: Escherichia coli (ATCC 8739); format: cell-based; details: ATCC 8739
Description: The Gram-positive strains Enterococcus faecalis (ATCC 29212), Staphylococcus aureus (HNCMO112011), and Listeria monocytogenes (ATCC 19111), and the Gram-negative strains Pseudomonas aeruginosa (ATCC 27853), Escherichia coli (ATCC 8739), Salmonella enterica (ATCC 13076), Klebsiella pneumoniae (NCTC 13440), and Acinetobacter baumannii (ATCC 17978) were obtained from ATCC (United States) and NCTC (National Collection of Type Cultures – England).
Minimal bactericidal concentrations (MBC) of peptides and reference antibiotics were determined in 20 mM potassium phosphate buffer (PPB, pH 7.4) and Mueller–Hinton broth (MHB) as described by ([Jenei et al., 2020]). Briefly, bacterial cultures were grown to mid-log phase, washed, adjusted to OD₆₀₀ = 0.1 (∼10⁷ CFU/mL), added 10 μl of it into 100 μl mixture and incubated in 96-well plates with 2-fold serial dilutions of peptides or antibiotics. After incubation at 37 °C with shaking, bacterial viability was assessed by plating 5 μL aliquots on LB agar. MBC was defined as the lowest concentration yielding no colony growth. […]
Three biological replicates were treated at OD600 = 0.2 with a final concentration of 1.6 µM NCR169C17–38 peptide for 20 min, while the control samples were treated with the same amount of water for 20 min. […] Quality and quantity was detected using 2200 TapeStation (Agilent) and Qubit RNA BR Assay […]

E. coli = assay: Real-time PI uptake; format: cell-based, Escherichia coli
Description: To monitor PI uptake in real time, 10 µl of E. coli suspension (OD₆₀₀ = 0.1, prepared as described above) was mixed with 90 µl of PPB containing a two-fold serial dilution of NCR169C17–38 (12.5 µM to 0.8 µM) or polymyxin B (0.8 µM), along with 200 ng/ml PI. Fluorescence was recorded using a Hidex Sense Microplate Reader (software version 5064) with excitation and emission wavelengths set at 535 nm and 617 nm, respectively. Experiments were repeated three times.
To get a more precise assessment of how rapidly NCR169C17–38 induces membrane damage, we monitored PI uptake in real time. E. coli was treated in a microtiter plate with two-fold dilutions of NCR169C17–38 (12.5 - 0.8 µM) and PI fluorescence was measured using a plate reader (Fig. 2.C). For comparison, polymyxin B, a well-known membrane-permeabilizing/damaging antibiotic, was included as a control. A rapid rise in fluorescence within 1–2 min was observed upon exposure to NCR169C17–38 at MBC or higher concentrations, indicating swift membrane permeabilization.

[2] = system: HindIII-digested lambda phage DNA; assay: Real-time DNA binding by SYBR Gold fluorescence; details: 100 ng DNA, 10 µM peptide added at 0 or 14 min, room temperature
Description: (§1) In addition, DNA-binding kinetics were monitored in real time using a Hidex Sense plate reader at room temperature in three independent experiments. Reaction mixtures contained 100 ng of HindIII-digested lambda phage DNA in 1 × SYBR Gold (Thermo Scientific), either without peptide or with 10 µM of NCR169C17–38 (2.74041 µg), NCR169 (4.56545 µg), NCR169_16–27 (1.56597 µg), or NCR169_17–27 (1.40279 µg). Peptides were added either at the start (0 min) or at 14 min. Fluorescence from DNA-bound SYBR Gold was measured every 3 min (excitation 490 nm, emission 535 nm). At 27 min, proteinase K (1 mg/ml; 100 µg final) was added to peptide-treated samples to assess the effect on peptide–DNA binding. Experiments were done in three biological replicates.
(§2) The DNA-binding kinetics were quantified using SYBR Gold fluorescence (Fig. 3.D). […] To test if peptide removal would recover the DNA–SYBR Gold fluorescence to control values, Proteinase K was added at 27 min to all reactions. […] In contrast, fluorescence values in the NCR169 samples remained unchanged, while those of NCR169C17–38 or NCR169_17–27 increased slightly and gradually to the same limited extent.

Proteinase K = Proteinase K (Parengyodontium album, UniProt P06873); assay: Proteinase K treatment of peptide-DNA samples (recovery of SYBR Gold fluorescence); details: Proteinase K 1 mg/ml added at 27 min to peptide-DNA-SYBR Gold samples, 10 µM peptide
Description: as §1, §2

Proteinase K, sequence (P06873 106-384): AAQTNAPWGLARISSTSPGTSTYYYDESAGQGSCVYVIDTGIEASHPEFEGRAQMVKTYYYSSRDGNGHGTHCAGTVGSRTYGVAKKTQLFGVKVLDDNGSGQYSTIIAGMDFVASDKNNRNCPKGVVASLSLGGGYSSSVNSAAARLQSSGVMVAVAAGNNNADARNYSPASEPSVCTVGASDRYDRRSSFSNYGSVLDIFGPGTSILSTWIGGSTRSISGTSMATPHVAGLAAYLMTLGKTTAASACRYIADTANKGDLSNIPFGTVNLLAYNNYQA

## CC[C@H](C)[C@H](NC(=O)[C@H](CCCCN)NC(=O)[C@H](Cc1ccccc1)NC(=O)[C@H](CC(C)C)NC(=O)[C@@H]1CCCN1C(=O)[C@H](CCCCN)NC(=O)[C@H](CCCCN)NC(=O)[C@H](CO)NC(=O)[C@@H](N)CCCCN)C(=O)N[C@@H](Cc1c[nH]c2ccccc12)C(=O)N[C@@H](CCCCN)C(=O)N[C@@H](CS)C(=O)N[C@H](C(=O)N[C@@H](CCC(=O)O)C(=O)N[C@@H](CC(N)=O)C(=O)N[C@H](C(=O)N[C@@H](CS)C(=O)N[C@H](C(=O)N[C@@H](CC(C)C)C(=O)N[C@@H](Cc1c[nH]c2ccccc12)C(=O)N[C@@H](Cc1ccc(O)cc1)C(=O)N[C@@H](CCCCN)C(N)=O)C(C)C)C(C)C)C(C)C [NCR169C17–38] (H-KSKKPLFKIWKCVENVCVLWYK-NH2; N-terminus assumed)
[1]
  MBC: 6.2 µM (≈ 17 µg/mL)
E. coli; E. coli in PPB, peptide at MBC or higher concentrations (12.5-0.8 µM tested), 200 ng/ml PI
  time to rapid rise in PI fluorescence: 1 to 2 min
E. coli; E. coli, polymyxin B 0.8 µM as control
  PI uptake kinetics compared at respective MBC values: more rapidly and effectively than polymyxin B
[2]
  extent of SYBR Gold fluorescence signal reduction (hierarchy): NCR169C17–38 > NCR169 > NCR169_16–27 > NCR169_17–27
Proteinase K
  sensitivity to Proteinase K treatment: only partial sensitivity
